Test: Ability of a test compound to regulate transcription of a Type I collagen gene using the expression level of a reporter gene (COL-Luc luciferase) as an index
Format: cell-based
Settings: final concentration 1 μM; normal human fetal skin fibroblast transfected with COL-Luc; TGF-β, 40 hours; read-out: inhibition percentage (inhibitory effect on the ability of TGF-β to promote transcription of a Type I collagen gene)
Method: 1×10^8 cells of a normal human fetal skin fibroblast (Clontech, catalogue No. CC-2509) were cultured at 37° C. overnight under 5% CO2 atmosphere. After the cultured cells were washed with a sodium phosphate buffer (hereinafter, referred to as PBS) twice, 3 ml of PBS was added thereto and the cells were scraped away the wall of a vessel using a cell scraper (Nalgen, catalogue No. 179693). The scraped cells were collected by centrifugation (1,500 rpm, 4° C., 15 min), and these were suspended in 20 ml of PBS and centrifuged again. To the resulting precipitates were added 11 ml of Solution 2 and 4.8 μl of pronase of DNA Extraction Kit (Stratagene, catalogue No. 200600). After shaken at 60° C. for 1 hour, the resulting mixture was allowed to stand in ice for 10 minutes. Then, 4 ml of Solution 3 of the kit was added to the mixture. After mixed, the mixture was allowed to stand in ice for 5 minutes and then centrifuged (3,000 rpm, 4° C., 15 min) to recover a supernatant. To the recovered supernatant was added 2 μl of RNase per 1 ml of the supernatant and the mixture was allowed to stand at 37° C. for 15 minutes. To the mixture was added 2-fold volume of ethanol. After mixed, a white thread-like substance (genomic DNA) appeared and the substance was recovered. The recovered genomic DNA washed with 70% ethanol and then air-dried. The air-dried genomic DNA was dissolved in 500 μl of 10 mM Tris-HCl, 1 mM EDTA (pH 8.0) (hereinafter, referred to as TE).
The resulting genomic DNA solution (the amount equivalent to 1 μg of genomic DNA), each 1 μl (10 pmol/μl) of an oligonucleotide consisting of the nucleotide sequence represented by SEQ ID No:1 and an oligonucleotide consisting of the nucleotide sequence represented by SEQ ID No:2, 29 μL of distilled water, 5 μl of the buffer attached to TaKaRa LA Taq (TAKARA SHUZO, catalogue No. RR002A), 5 μL of a Mg^2+ solution, 5 μL of a dNTP mixture and 0.5 μl of TaKaRa LA Taq (TAKARA SHUZO, catalogue No. RR002A) were mixed. After the resulting mixed solution was incubated at 94° C. for 5 minutes, the mixed solution was subjected to 30 cycles, in which one cycle consists of incubation at 94° C. for 1 minute, at 60° C. for 1 minute and then at 72° C. for 1 minute. The mixed solution was electrophoresed on a 2% agarose gel to recover about 0.5 kb of a DNA. The recovered DNA was treated with phenol/chloroform and then precipitated with ethanol to recover the DNA. The resulting DNA was dissolved in ultrapure water. To this solution were added 2.5 μl of NheI and 2.5 μl of HindIII, and then incubated at 37° C. for 3 hours. Then, the solution was electrophoresed on a 2% agarose gel to recover about 3.5 kb of a DNA. The recovered DNA was precipitated with ethanol to recover again the DNA (hereinafter, referred to as the collagen promoter DNA).
On the other hand, the vector pGL3 (Promega, catalogue No. E1751) having the nucleotide sequence encoding firefly luciferase was digested with NheI and HindIII, and then subjected to agarose gel electrophoresis as described above to recover about 5 kb of a DNA. The recovered DNA was precipitated with ethanol to recover the DNA again. To the recovered DNA were added 44 μl of distilled water, 5 μl of Buffer attached to Alkaline Phosphatase (TAKARA SHUZO, catalogue No. 2120A) and 1 μl of Alkaline Phosphatase (TAKARA SHUZO, catalogue No. 2120A). The mixed solution was incubated at 65° C. for 30 minutes. Then, the mixed solution was treated with phenol/chloroform twice, and precipitated with ethanol to recover the DNA (hereinafter referred to as the Luc vector DNA). Then, after about 20 ng of the collagen promoter DNA and about 20 ng of the Luc vector DNA were mixed, the same amount of a DNA Ligation kit Ver2 enzyme solution was added and this was incubated overnight at 16° C. To the mixed solution was added Escherichia coli 5Hdα (TOYOBO, catalogue No. DNA-903), this was allowed to stand in ice for 30 minutes, and then incubated at 42° C. for 45 seconds. […]

Compound | inhibition at 1 µM
C=CCOc1cccc(C=CC(=O)c2c(OCC=C)cc(C)oc2=O)c1 [(1b), 4-allyloxy-3-[3-(3-allyloxyphenyl)-1-oxo-2-propenyl]-6-methyl-2H-pyran-2-one] | ≥ 70%
COc1cc(C)oc(=O)c1C(=O)C=Cc1cccc(C=CC#N)c1 [(2a), 4-methoxy-3-[3-[3-(2-cyanoethenyl)phenyl]-1-oxo-2-propenyl]-6-methyl-2H-pyran-2-one] | ≥ 70%
C#CCOc1cccc(C=CC(=O)c2c(OCC=C)cc(C)oc2=O)c1 [(2b), 4-allyloxy-3-[3-(3-propargyloxyphenyl)-1-oxo-2-propenyl]-6-methyl-2H-pyran-2-one] | ≥ 70%
C=CCOc1cccc(C=CC(=O)c2c(OC)cc(C)oc2=O)c1 [(5a), 4-methoxy-3-[3-(3-allyloxyphenyl)-1-oxo-2-propenyl]-6-methyl-2H-pyran-2-one] | ≥ 70%
C#CCOc1cccc(C=CC(=O)c2c(O)cc(C)oc2=O)c1 [(7a), 4-hydroxy-3-[3-(3-propargyloxyphenyl)-1-oxo-2-propenyl]-6-methyl-2H-pyran-2-one] | ≥ 70%
C#CCOc1ccc(C=CC(=O)c2c(OC)cc(C)oc2=O)cc1 [(10a), 4-methoxy-3-[3-(4-propargyloxyphenyl)-1-oxo-2-propenyl]-6-methyl-2H-pyran-2-one] | ≥ 70%
CSCCOc1cccc(C=CC(=O)c2c(N3CCCCC3)cc(C)oc2=O)c1 [(14b), 4-piperidino-3-[3-[3-(2-methylthioethoxy)phenyl]-1-oxo-2-propenyl]-6-methyl-2H-pyran-2-one] | ≥ 70%
N#CCOc1cccc(C=CC(=O)c2c(O)c3ccccc3oc2=O)c1 [(14d), 4-hydroxy-3-[3-[3-(cyanomethoxy)phenyl]-1-oxo-2-propenyl]-2H-1-benzopyran-2-one] | ≥ 70%
COc1cc(C)oc(=O)c1C(=O)C=Cc1cccc(OCC#N)c1 [(15a), 4-methoxy-3-[3-[3-(cyanomethoxy)phenyl]-1-oxo-2-propenyl]-6-methyl-2H-pyran-2-one] | ≥ 70%
COc1c(C(=O)C=Cc2cccc(OCC#N)c2)c(=O)oc2ccccc12 [(15d), 4-methoxy-3-[3-[3-(cyanomethoxy)phenyl]-1-oxo-2-propenyl]-2H-1-benzopyran-2-one] | ≥ 70%
COC(=O)CNC(=O)c1cccc(C=CC(=O)c2c(N3CCCCC3)cc(C)oc2=O)c1 [(16b), 4-piperidino-3-[3-[3-[[(methoxycarbonylmethyl)amino]carbonyl]phenyl]-1-oxo-2-propenyl]-6-methyl-2H-pyran-2-one] | ≥ 70%
COCC(=O)Nc1cccc(C=CC(=O)c2c(N3CCCCC3)c3ccccc3oc2=O)c1 [(17e), 4-piperidino-3-[3-[3-(methoxyacetylamino)phenyl]-1-oxo-2-propenyl]-2H-1-benzopyran-2-one] | ≥ 70%
COCCOC(=O)Nc1cccc(C=CC(=O)c2c(N3CCCCC3)c3ccccc3oc2=O)c1 [(18e), 4-piperidino-3-[3-[3-[(2-methoxyethoxy)carbonylamino]phenyl]-1-oxo-2-propenyl]-2H-1-benzopyran-2-one] | ≥ 70%
C#CCNc1cc(C)oc(=O)c1C(=O)C=Cc1cccc(C=CC#N)c1 [(20b), 4-propargylamino-3-[3-[3-(2-cyanoethenyl)phenyl]-1-oxo-2-propenyl]-6-methyl-2H-pyran-2-one] | ≥ 70%
COCC(=O)Nc1cccc(C=CC(=O)c2c(OC)cc(C)oc2=O)c1 [(22a), 4-methoxy-3-[3-[3-(methoxyacetylamino)phenyl]-1-oxo-2-propenyl]-6-methyl-2H-pyran-2-one] | ≥ 70%
COCCOC(=O)Nc1cccc(C=CC(=O)c2c(O)cc(C)oc2=O)c1 [(24a), 4-hydroxy-3-[3-[3-[(2-methoxyethoxy)carbonylamino]phenyl]-1-oxo-2-propenyl]-6-methyl-2H-pyran-2-one] | ≥ 70%
COCCOC(=O)Nc1cccc(C=CC(=O)c2c(O)c3ccccc3oc2=O)c1 [(24d), 4-hydroxy-3-[3-[3-[(2-methoxyethoxy)carbonylamino]phenyl]-1-oxo-2-propenyl]-2H-1-benzopyran-2-one] | ≥ 70%
COCCOC(=O)Nc1cccc(C=CC(=O)c2c(OC)cc(C)oc2=O)c1 [(25a), 4-methoxy-3-[3-[3-[(2-methoxyethoxy)carbonylamino]phenyl]-1-oxo-2-propenyl]-6-methyl-2H-pyran-2-one] | ≥ 70%
COCCOC(=O)Nc1cccc(C=CC(=O)c2c(OC)c3ccccc3oc2=O)c1 [(25d), 4-methoxy-3-[3-[3-[(2-methoxyethoxy)carbonylamino]phenyl]-1-oxo-2-propenyl]-2H-1-benzopyran-2-one] | ≥ 70%
Cc1cc(O)c(C(=O)C=Cc2ccc(C(=O)NCCO)cc2)c(=O)o1 [(32d), 4-hydroxy-3-[3-[4-[(2-hydroxyethyl)aminocarbonyl]phenyl]-1-oxo-2-propenyl]-6-methyl-2H-pyran-2-one] | ≥ 70%
COCCNC(=O)c1ccc(C=CC(=O)c2c(O)cc(C)oc2=O)cc1 [(36a), 4-hydroxy-3-[3-[4-[(2-methoxyethyl)aminocarbonyl]phenyl]-1-oxo-2-propenyl]-6-methyl-2H-pyran-2-one] | ≥ 70%
COCC(=O)Nc1cccc(C=CC(=O)c2c(OC)c3ccccc3oc2=O)c1 [Compound (22d), 4-methoxy-3-[3-[3-(methoxyacetylamino)phenyl]-1-oxo-2-propenyl]-2H-1-benzopyran-2-one] | ≥ 70%

Source: patent US7691883B2, “Cinnamoyl compound and use of the same” (Sumitomo Chemical Company, Limited, priority 2003, dated 2010)
